A short description of assay [1]: P. falciparum late gametocyte killing, dose response, luminescence (AID 1117278).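 Note: gametocytes exposed to compound for 24 hours.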 It counts as functional, cell-based.
A short description of assay [2]: Jurkat T cell cytotoxicity, dose response, cytotoxicity control for P. falciparum gametocyte viability project, luminescence (AID 1117277).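 Note: potency reflects loss of cellular ATP meaning fewer viable cells.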 It counts as functional, cell-based.
Assay [3] is described as follows: Luminescence-based cell-based high throughput dose response assay to identify activators of the DAF-12 from the parasite S. stercoralis (ssDAF-12). It counts as functional.
The target in assay [4] is T1, Oxysterols receptor LXR-beta (Homo sapiens, UniProt P55055).
T1 sequence (P55055 whole entry): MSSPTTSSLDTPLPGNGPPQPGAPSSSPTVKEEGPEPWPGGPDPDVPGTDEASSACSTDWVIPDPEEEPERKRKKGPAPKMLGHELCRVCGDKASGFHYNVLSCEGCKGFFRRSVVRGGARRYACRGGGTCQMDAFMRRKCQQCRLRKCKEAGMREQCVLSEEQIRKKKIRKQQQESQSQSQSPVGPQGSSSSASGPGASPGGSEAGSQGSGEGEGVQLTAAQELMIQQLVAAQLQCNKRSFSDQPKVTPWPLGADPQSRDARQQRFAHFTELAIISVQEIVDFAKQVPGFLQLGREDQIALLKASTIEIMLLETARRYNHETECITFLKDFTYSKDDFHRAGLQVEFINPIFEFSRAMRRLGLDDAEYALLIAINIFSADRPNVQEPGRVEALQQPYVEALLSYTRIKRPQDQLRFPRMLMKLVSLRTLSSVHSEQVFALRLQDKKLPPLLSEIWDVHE
The assay can be described thus: LXR agonists, Gal4 luciferase reporter, dose response, counter-screen for ssDAF-12 agonist project, cell-based, luminescence, HEK293, S. stercoralis campaign (AID 720737). It counts as functional. The following applies: read-out: IC50 (the source's name). In general terms: Reporter assays use an easily measured gene product as a stand-in for the process of interest.

The nature of assay [5]: growth suppression of PTEN-null colon cells, dose response, cell-based, HCT116 PTEN knockout (AID 1047).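 Note: HCT116 colon tumor cells with PTEN knocked out; cells exposed to compound for 60 hours before readout; potency for loss of cell viability measured by luminescence.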 It counts as functional.
A short description of assay [6]: growth suppression of beta-catenin-knockout colon cells, dose response, cell-based, HCT116, human colon tumor (AID 1045).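 Note: HCT116 colon tumor cells with beta catenin knocked out; cells exposed to compound for 60 hours.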 It counts as functional.
The nature of assay [7]: Artemis endonuclease inhibitor potency, dose response, biochemical, fluorescence intensity (AID 720701).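 Note: Artemis endonuclease enzyme.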 It counts as functional.
Assay [8] in a line: Vero cell cytotoxicity, dose response, cytotoxicity control for Vif-APOBEC3G degradation inhibitor project, Vero cells (AID 1117358). The following applies: Human immunodeficiency virus 1, Vero. It counts as functional.
For assay [9], the target named is Protein Tat (Human immunodeficiency virus type 1 group M subtype B (isolate HXB2)(HIV-1), UniProt P04608). It counts as functional.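 Note: tat binding to TAR RNA read out by fluorescence polarization.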
Sequence of Protein Tat (P04608 whole entry): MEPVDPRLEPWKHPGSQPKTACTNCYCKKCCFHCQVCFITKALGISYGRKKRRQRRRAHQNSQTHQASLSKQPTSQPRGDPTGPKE
Assay [10] is described as follows: inhibitors of Vif binding to APOBEC3G peptide, primary screen, biochemical, TR-FRET, GST-Vif 1-94, biotin-A3G peptide, dose response retest (AID 1117319).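 Note: TR-FRET signal of purified GST-Vif binding a biotinylated A3G peptide; inhibitors lower the FRET signal by blocking Vif and A3G binding.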 It counts as functional.
Assay [11] in a line: miR-122 activators in hepatoma reporter cells, dose response, cell-based, Huh7 psiCHECK-miR122, Renilla luciferase, cherry-picked (AID 651956).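 Note: huh7 hepatoma cells stably carrying a psiCHECK-2 miR-122 sensor plasmid; renilla luciferase signal reporting endogenous miR-122 activity after 48 h compound exposure.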 It counts as functional.
Assay [12] can be described thus: HEK293 cell viability, dose response, counter-screen for EBV LMP1 inhibitor project, dry powder, set 2 (AID 624374). It counts as functional. Background: The purpose of a counterscreen is to sort out artefacts and off-target activity.
Assay [13] concerns the target Paired box protein Pax-8 (Homo sapiens, UniProt Q06710). Nature of the assay: inhibitors of PAX8-driven TPO luciferase reporter, dose response, RMG-I cells, cherry-pick (AID 687027).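 Note: luciferase reporter driven by Pax8 target thyroperoxidase promoter measured by SteadyGlo luminescence.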 It counts as functional, cell-based.
Assay [14] in a line: PAX2 cell-based inhibition, dose response, selectivity assay for PAX8 inhibitor project, plate reader, dry powder samples (AID 743048).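 Note: HEK293 cells carrying a WT1 promoter luciferase reporter driven by expressed Pax2; potency is for inhibition of Pax2 driven reporter signal.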 It counts as functional.
Assay [15] can be described thus: A549 cell cytotoxicity, dose response, cytotoxicity control, 24 h, CellTiter-Glo luminescence, cherry-picks (AID 1053115). It counts as functional, cell-based. Particulars: A549, 24 h. (In ATP-based viability assays light output follows the ATP content of the culture.)
A short description of assay [16]: PAX5 activity inhibitors, dose response, selectivity assay for PAX8 inhibitor project, cell-based, plate reader, dry powder samples (AID 743047).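 Note: HEK293 cells carrying a Pax5 driven CD19 promoter luciferase reporter; potency of inhibitors that lower reporter luminescence.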 It counts as functional.
The nature of assay [17]: HEK293T cytotoxicity, dose response, cytotoxicity control for miR-122 modulator project, cell-based, inhibitor set, cherry-pick, set 2 (AID 720697). It counts as functional.
Assay [18] can be described thus: cytotoxicity in OV-90 ovarian cancer cells, dose response, PAX8 inhibitor project, cell-based, plate reader, dry powder, SA8 (AID 743149). It counts as functional.
The nature of assay [19]: cytotoxicity dependent on PAX8, dose response, cell-based, plate reader, dry powder (AID 743049). It counts as functional.
A short description of assay [20]: A549 cell cytotoxicity, dose response, CellTiter-Glo luminescence, dry powder, set 17 (AID 1117284). It counts as functional, cell-based.
Assay [21] is described as follows: NIH:OVCAR-3 ovarian cancer cell cytotoxicity, dose response, PAX8 inhibitor project, plate reader, dry powder samples (AID 743044). It counts as functional, cell-based.
Assay [22] is described as follows: non-specific cell cytotoxicity, dose response, cytotoxicity control for PAX8 inhibitor project, plate reader, dry powder samples (AID 743021). It counts as functional, cell-based.
Assay [23] is described as follows: cytotoxicity in OVCAR8 ovarian cancer cells, dose response, PAX8 project, cell-based, plate reader, dry powder samples (AID 743197). It counts as functional. The following applies: OVCAR-8.
A short description of assay [24]: P. falciparum 3D7-ScDHODH growth inhibitors, dose response, SYBR Green, dry powder samples (AID 1159570).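 Note: parasite growth measured after 72 hours of compound exposure.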 It counts as functional, cell-based.
Assay [25] can be described thus: HepG2 cell cytotoxicity, dose response, cytotoxicity control, plate reader, dry powder samples (AID 1159569).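 Note: inhibitor potency with signal falling toward the positive control level.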 It counts as functional, cell-based.
The nature of assay [26]: P. falciparum Dd2 growth inhibitors, dose response, SYBR Green, cherry-picked samples (AID 1159567). It counts as functional, cell-based.
Assay [27] is described as follows: P. falciparum Dd2 growth inhibitors, dose response, SYBR Green, dry powder samples (AID 1159566).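 Note: potency for growth inhibition with lower SYBR green DNA signal.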 It counts as functional, cell-based.
A short description of assay [28]: HepG2 cell cytotoxicity, dose response, cytotoxicity control, cherry-picked samples (AID 1159577). It counts as functional, cell-based.
A short description of assay [29]: P. falciparum ATP4 D1247Y mutant growth inhibitors, dose response, NITD609-resistant line, SYBR Green, dry powder (AID 1159571).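 Note: parasites synchronized at ring stage by sorbitol before testing.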 It counts as functional, cell-based.
Assay [30] is described as follows: HeLa 2N DNA content increase, dose response, cell-based, IC50 (AID 1117349). It counts as functional.
Assay [31] is described as follows: Concentration-dependent survival of SW480 colon cancer line, luminescence detection with CellTiter-Glo, half-maximal inhibitory concentration (AID 1117338). It counts as functional.
Assay [32] is described as follows: Dose-response inhibition of insulin secretion in a rat insulinoma line at 5 mM glucose (AID 1117331). It counts as functional, cell-based. Particulars: INS-1E.
A short description of assay [33]: RKO cell viability reduction, dose response, CellTiter-Glo luminescence (AID 1117322). It counts as functional.
The nature of assay [34]: cytotoxicity toward HCT116 cells – cell-based, CellTiter-Glo luminescence, IC50, dose response (AID 1117332). It counts as functional. The following applies: HCT-116.
Assay [35] can be described thus: SNU-C1 cell viability reduction, dose response, CellTiter-Glo luminescence (AID 1117323). It counts as functional, cell-based.
The nature of assay [36]: half-maximal inhibitory concentration for glucagon-like peptide-1 release, STC-1 cell line, dose-response (AID 1117345). It counts as functional, cell-based.
The nature of assay [37]: cytotoxicity toward Colo320 cells – cell-based, CellTiter-Glo luminescence, IC50, dose response (AID 1117334). It counts as functional. Particulars: COLO 320.
Assay [38] is described as follows: HeLa 4N DNA content increase, dose response, cell-based, IC50 (AID 1117351). It counts as functional.
Assay [39] is described as follows: cytotoxicity toward HT-29 cells – cell-based, CellTiter-Glo luminescence, IC50, dose response (AID 1117330). It counts as functional.
Assay [40] in a line: CellTiter-Glo luminescent dose response of DLD-1 viability loss (AID 1117352). It counts as functional.
Assay [41] is described as follows: HCT116 cell viability decrease, GSK3B pretreatment – CellTiter-Glo, IC50, dose response (AID 1117339). It counts as functional. The following applies: HCT-116.
The nature of assay [42]: Glucagon-like peptide 1 release potency, NCI-H716 cell line, dose-response, half-maximal inhibitory concentration (AID 1117344). It counts as functional, cell-based.
In assay [43] the target is RNA-editing ligase 1, mitochondrial (Trypanosoma brucei brucei, UniProt P86926). The assay can be described thus: TbREL1 ligase inhibitors, dose response, biochemical, fluorescence, Trypanosoma brucei (AID 1117295). It counts as functional.
Sequence of RNA-editing ligase 1, mitochondrial (P86926 whole entry): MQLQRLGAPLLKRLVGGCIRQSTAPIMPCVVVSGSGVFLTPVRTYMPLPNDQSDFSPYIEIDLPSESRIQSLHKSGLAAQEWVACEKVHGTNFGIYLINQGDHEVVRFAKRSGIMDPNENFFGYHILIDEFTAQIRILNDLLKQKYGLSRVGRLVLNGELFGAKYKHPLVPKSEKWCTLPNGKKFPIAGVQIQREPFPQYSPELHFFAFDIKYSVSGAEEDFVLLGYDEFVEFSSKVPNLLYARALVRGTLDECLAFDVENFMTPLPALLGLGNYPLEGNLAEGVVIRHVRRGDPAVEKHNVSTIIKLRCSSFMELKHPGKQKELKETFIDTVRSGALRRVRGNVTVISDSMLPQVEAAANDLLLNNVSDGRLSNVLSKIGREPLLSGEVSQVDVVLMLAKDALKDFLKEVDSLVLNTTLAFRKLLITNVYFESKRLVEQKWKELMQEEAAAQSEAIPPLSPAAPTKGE
The nature of assay [44]: A549 cell cytotoxicity, dose response, cytotoxicity control, plate reader, dry powder, set 6 (AID 743312). It counts as functional, cell-based.
Assay [45] has as its target T2, Low molecular weight phosphotyrosine protein phosphatase (Homo sapiens, UniProt P24666). The assay can be described thus: LMPTP phosphatase inhibitors, dose response, biochemical, OMFP substrate, fluorescence intensity, set 2 (AID 743307). It counts as functional.
The target in assay [46] is T2, Low molecular weight phosphotyrosine protein phosphatase. Nature of the assay: LMPTP phosphatase inhibitors, colorimetric pNPP readout, dose response, orthogonal assay, biochemical, absorbance, pNPP substrate, LMPTP-A isoform, set 2 (AID 743308). It counts as functional.

Calls of active or inactive are those of the source.

Sequence of Paired box protein Pax-8 (Q06710 whole entry): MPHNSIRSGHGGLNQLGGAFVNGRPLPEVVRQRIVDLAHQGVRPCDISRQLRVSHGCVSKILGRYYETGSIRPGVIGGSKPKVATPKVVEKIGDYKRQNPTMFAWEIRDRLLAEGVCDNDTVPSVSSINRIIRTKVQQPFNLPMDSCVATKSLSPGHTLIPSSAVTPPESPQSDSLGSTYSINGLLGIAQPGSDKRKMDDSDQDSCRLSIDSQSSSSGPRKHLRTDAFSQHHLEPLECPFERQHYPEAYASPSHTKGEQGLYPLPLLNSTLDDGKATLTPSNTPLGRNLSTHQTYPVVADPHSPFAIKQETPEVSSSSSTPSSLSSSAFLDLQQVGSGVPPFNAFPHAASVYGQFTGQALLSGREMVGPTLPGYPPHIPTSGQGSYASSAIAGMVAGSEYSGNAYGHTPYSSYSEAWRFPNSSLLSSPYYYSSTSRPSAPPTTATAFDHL
T2 sequence (P24666 whole entry, canonical isoform): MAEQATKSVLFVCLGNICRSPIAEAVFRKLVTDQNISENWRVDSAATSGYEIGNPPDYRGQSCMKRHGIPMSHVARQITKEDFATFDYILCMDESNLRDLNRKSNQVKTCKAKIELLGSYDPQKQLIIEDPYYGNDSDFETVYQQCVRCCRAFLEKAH

As a reminder, the IC50 is the midpoint of a concentration-inhibition curve. As to `COc1ccccc1OCCOCCOc1ccccc1Cl`, the IC50 is > 109 µM (inactive) in assay [1] and > 83.3 µM (inactive) in assay [2].

As to `O=C(CCn1c(=S)oc2ccccc21)NC1CCCCC1`, the IC50 in [3] was > 67.6 µM (inactive). In addition, the EC50 in assay [4] was > 67.6 µM (inactive).

Consider `COc1ccc(Nc2nc(Nc3ccc(OC)cc3)nc(SC3=NCCS3)n2)cc1`, for which the EC50 in assay [5] was 40.1 µM (active); in assay [6], 71.1 µM (active). In addition, the IC50 in [7] was 1.68 µM (active).

As usually defined, the CC50 is the concentration at which the toxic effect on the cells reaches its halfway point. As for `Cc1ccc(C)c(S(=O)(=O)Nc2ccccc2C(=O)Nc2ccccc2N2CCOCC2)c1`, the CC50 in assay [8] is > 40 µM (active).

In the case of `CCOc1ccccc1N1C(=O)CC(Nc2ccc(N3CCOCC3)cc2)C1=O` (configuration not stated), the results for the IC50 in [9] and in assay [10] were 16.3 µM (inconclusive) and > 50.6 µM (active), respectively.

Usually AC50 stands for the midpoint of the concentration-response curve, whichever way the signal moves. Turning to `C[C@@H]1CN([C@@H](C)CO)S(=O)(=O)c2ccc(C#C[C@@H](C)O)cc2O[C@H]1CN(C)Cc1ccc(-c2ccccc2)cc1`, the AC50 in [11] is 20.3 µM (active); in assay [13], 6.61 µM (active); in [14] it was > 70 µM (inactive); in assay [15], 53.4 µM (active); in [16] it was 41.3 µM (active); in [17], 8.22 µM (active). Also, the AC50 in assay [18] was 17.7 µM (active); in assay [19], > 70 µM (inactive); in assay [20], 46.1 µM (active). The AbsAC35 in assay [12] was found to be 211.64 µM.

Regarding `Cc1cccc(-c2ccc([C@H]3[C@H]4CN(S(=O)(=O)c5cccc(C)c5)CCCCN4[C@H]3CO)cc2)c1`, the AC50 in assay [13] is 7.45 µM (active); in [21] it was 43.5 µM (active); in [22], 67.1 µM (active); in [23] it was 44.6 µM (active); in [24], 2.07 µM (active); in assay [25], > 100 µM (inactive). Moreover, the AC50 in [26] is 2.62 µM (active); in assay [27], 1.19 µM (active); in assay [28], > 39 µM (inactive); in [29], 1.42 µM (active).

For the molecule `CN1CCCC(CC2c3ccccc3Sc3ccccc32)C1` (configuration not stated), the IC50 in assay [30] was > 10 µM (inactive); in [31], 4.7 µM (active); in assay [32], > 11.1 µM (inactive); in [33], 3.49 µM (active); in assay [34], > 20 µM (inactive); in assay [35] it was 15.1 µM (inactive). In addition, the IC50 was > 40 µM (inactive) in assay [36]; > 20 µM (inactive) in assay [37]; > 10 µM (inactive) in assay [38]; 6.43 µM (inactive) in [39]; > 20 µM (inactive) in assay [40]; 8.68 µM (inactive) in assay [41]. Moreover, in assay [42], the IC50 was > 40 µM (inactive).

For `COC(=O)C1=C(C)N(Cc2ccc(C(F)(F)F)cc2)C(NCc2ccccc2C(F)(F)F)=NC1c1cccc(Cl)c1` (configuration not stated), the IC50 in assay [43] is > 96.6 µM (inactive).

For `Cc1ccc(C(C)C)c(OCCn2c(S)nc3ccccc32)c1`, the AC50 in assay [44] is 22 µM (active).

As for `Fc1ccc(-c2cc(NCCCN3CCCCC3)c3ccccc3n2)cc1`, the results for the IC50 in assay [45] and in assay [46] were 1.4 µM (active) and 3.27 µM (active), respectively.

Source of the values: ChEMBL document CHEMBL1201862, “PubChem BioAssay data set” (2004).
